This note sets out measurements from PubChem BioAssay (NCI).

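Growth conditions: 96-well plates. Treatment: test compound, 48 hours, 5 concentrations. Analysis: linear interpolation between bracketing concentrations; unreached endpoints set to highest concentration. GI50: concentration for 50% inhibition of growth. TGI denotes the concentration required for complete inhibition of growth.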

Common to all, as to assay: inhibition of tumour cell growth, NCI panel, 48 h
In experiment [1] the test system is HCT-116 colon.
The subject of experiment [2] is SR leukemia.
The subject of experiment [3] is CCRF-CEM leukemia.
Experiment [4] has as its system SF-539 CNS.
Experiment [5] deals with LOX IMVI melanoma.
In experiment [6] the test system is NCI-H460 lung.
In experiment [7] the test system is OVCAR-8 ovarian.
Experiment [8] relates to SK-MEL-28 melanoma.
Experiment [9] concerns NCI-H522 lung.
Experiment [10] concerns PC-3 prostate.

Take `Brc1ccc2ns[s+]c2c1`: the TGI is above 100 µM in experiment [1]; above 100 µM in [2]; above 100 µM in [3]; 65.3 µM in [4]; above 100 µM in [5]; above 100 µM in [6]. Moreover, the TGI in experiment [7], in experiment [8] and in experiment [9] was above 100 µM each time.
In the case of `CCCCCCCCCCCC[n+]1ccc2ccccc2c1`, the GI50 was 0.857 µM in [1]; 0.219 µM in experiment [10]; 0.75 µM in experiment [2]; 0.317 µM in [3]; 1.58 µM in [4]; 1.69 µM in experiment [6]. The GI50 in experiment [7] is 0.654 µM; in experiment [8], 1.47 µM; in experiment [9], 0.41 µM. The TGI was found to be 2.37 µM in experiment [1]; 1.12 µM in experiment [10]; 2.57 µM in experiment [2]; 2.09 µM in experiment [3]; 3.22 µM in [4]; 3.27 µM in [6]. The TGI in [7] turned out to be 2.34 µM; in [8], 3 µM; in [9], 1.88 µM.
Consider `Nc1c(Cl)ncnc1NCCCNc1ncnc(Cl)c1N`, for which the TGI in experiment [1], in experiment [2], in [3], in experiment [4], in experiment [5] and in [6] was above 100 µM each time. Moreover, the TGI in experiment [7], in [8] and in experiment [9] was above 100 µM in each case.
In the case of `O=C(NNc1ccccc1)/C(=C/c1ccc2c(c1)OCO2)NC(=O)c1ccccc1`, the TGI in [1], in experiment [2], in experiment [3], in experiment [4], in [5] and in experiment [6] was above 100 µM throughout. The TGI in experiment [7], in experiment [8] and in experiment [9] was above 100 µM each time.
Turning to `NC(=O)NC1C(C(N)=O)N(Cc2ccccc2)C(=O)N1Cc1ccccc1` (configuration not stated), the TGI in experiment [1], in experiment [2], in experiment [3], in experiment [4], in experiment [5] and in [6] was above 100 µM throughout. Moreover, the TGI in [7], in experiment [8] and in experiment [9] was above 100 µM throughout.
On to `CC(SC(=O)Nc1ccc(N=Nc2ccccc2)cc1)C(=O)O` (configuration not stated), for which the TGI in experiment [1], in experiment [2], in experiment [3], in [4], in [5] and in experiment [6] was above 100 µM each time. Also, the TGI in experiment [7], in experiment [8] and in experiment [9] was above 100 µM throughout.
As for `COC(=O)C=Cc1ccc2nncnc2c1` (mixture of isomers), the TGI in [1], in experiment [10], in [2], in experiment [3], in [4] and in experiment [5] was above 100 µM throughout. Moreover, the TGI in experiment [7], in [8] and in experiment [9] was above 100 µM throughout.
On to `NC(=S)c1c(N)n(C2OC(CO)C(O)C2O)c2ncnc(N)c12` (configuration not stated), for which the GI50 is 0.211 µM in experiment [1]; 0.221 µM in [10]; 0.0636 µM in [2]; 0.241 µM in [3]; 0.241 µM in experiment [4]; 0.2 µM in experiment [6]. Moreover, the GI50 is 0.232 µM in [7], 0.295 µM in [8] and 0.188 µM in experiment [9]. For the same compound, the TGI in [2] was 0.403 µM; in experiment [3], 0.773 µM; in experiment [4] it was 1.06 µM; in experiment [7] it was 0.863 µM; in [8], 1.81 µM; in experiment [9] it was 0.479 µM.
As for `O=C(Nc1nc2c(ncn2C2OC(CO)C(O)C2O)c(=O)[nH]1)c1ccccc1` (configuration not stated), the TGI in experiment [1], in [2], in experiment [3], in [4], in experiment [5] and in experiment [6] was above 100 µM each time. For the same compound, the TGI in experiment [7], in experiment [8] and in experiment [9] was above 100 µM each time.
As for `CCCCCCC[CH2][Sn]1([CH2]CCCCCCC)[O]C(=O)c2cccnc2[O]1`, the GI50 in experiment [1], in [2], in experiment [3], in experiment [4], in experiment [5] and in [6] was above 100 µM each time. In addition, the GI50 in experiment [7], in [8] and in experiment [9] was above 100 µM in each case. Also, the TGI in experiment [1], in experiment [2], in experiment [3], in experiment [4], in experiment [5] and in [6] was above 100 µM each time. Further, the TGI in experiment [7], in experiment [8] and in [9] was above 100 µM throughout.
Turning to `O=S(=O)(c1cnccc1N1CCN(CCO)CC1)N1CCCC1`, the TGI in [1], in experiment [10], in experiment [2], in experiment [4], in experiment [5] and in experiment [6] was above 100 µM throughout. The TGI in experiment [7], in [8] and in experiment [9] was above 100 µM each time.
In the case of `Nc1ncnc2c1ncn2C1CC(OCc2ccccc2[N+](=O)[O-])C(CO)O1` (configuration not stated), the TGI in [1] is above 50 µM; in [2], 34.6 µM; in [3] it was above 50 µM; in [4] it was above 50 µM; in experiment [5] it was above 50 µM; in experiment [6], above 50 µM. Further, the TGI is above 50 µM in experiment [7], above 50 µM in experiment [8] and 35.9 µM in experiment [9].
